We go through two compounds from paper PMC10873978, “Novel tetrahydroisoquinolines as DHFR and CDK2 inhibitors: synthesis, characterization, anticancer activity and antioxidant properties” (BMC Chemistry, 2024).

Usually IC50 stands for the midpoint of a concentration-inhibition curve. Usually viability stands for the share of living cells, or the viability signal relative to a control. A low value points to more harm to the cells.

Structures are written as SMILES. Several values for one entry are separate records, joined by “and”; a condition that tells them apart may be missing. Equal values may be shown once. Read-outs that look alike come from different tables or passages of the source.

The target of data set [1] is T1, IKB kinase B (Homo sapiens, UniProt O14920).
T1 sequence (O14920 1-756): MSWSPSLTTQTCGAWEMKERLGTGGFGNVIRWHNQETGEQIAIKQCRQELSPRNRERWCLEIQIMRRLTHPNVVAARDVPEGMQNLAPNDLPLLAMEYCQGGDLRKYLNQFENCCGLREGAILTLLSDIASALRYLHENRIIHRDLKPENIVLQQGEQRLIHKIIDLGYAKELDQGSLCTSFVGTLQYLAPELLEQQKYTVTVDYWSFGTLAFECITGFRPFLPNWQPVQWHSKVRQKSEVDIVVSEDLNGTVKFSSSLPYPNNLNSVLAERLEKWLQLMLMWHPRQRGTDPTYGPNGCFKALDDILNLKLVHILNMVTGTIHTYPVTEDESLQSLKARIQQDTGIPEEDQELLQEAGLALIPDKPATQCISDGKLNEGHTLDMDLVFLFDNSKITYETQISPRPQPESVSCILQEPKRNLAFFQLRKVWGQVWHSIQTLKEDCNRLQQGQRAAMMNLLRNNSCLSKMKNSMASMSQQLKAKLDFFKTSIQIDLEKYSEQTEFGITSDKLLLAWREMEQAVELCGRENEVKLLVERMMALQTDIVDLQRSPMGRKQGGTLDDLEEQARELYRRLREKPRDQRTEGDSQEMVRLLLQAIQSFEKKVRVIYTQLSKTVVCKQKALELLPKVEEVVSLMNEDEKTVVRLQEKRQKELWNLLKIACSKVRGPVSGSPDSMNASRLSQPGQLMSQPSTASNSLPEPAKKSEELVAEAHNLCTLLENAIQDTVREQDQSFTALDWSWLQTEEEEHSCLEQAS
In words: IKB kinase inhibition. The class given is biochemical. The note with it: IκB.

Data set [2] relates to MCF7 cell line. In words: In vitro cytotoxic activity, MTT method, MCF7. The class given is cell-based, human. A digest of the protocol:
(§1)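 Monolayers formed over 24 h at 37 °C from 10^5 cells/mL were treated with graded compound concentrations, doxorubicin serving as reference. Viability came from MTT reduction over 1–5 h (5% CO2), absorbance at 560 nm with 620 nm background subtraction.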
In general terms: Tetrazolium assays rely on reduction of a dye to a coloured formazan, in cell work by metabolically active cells.

Data set [3] relates to A549 cell line. Description: In vitro cytotoxic activity, MTT method, A549. The note with it: Homo sapiens, read-out: IC50 ± SD. A digest of the protocol: as §1
Data set [4] is described as follows: Cytotoxicity on normal cell line WI-38. The class given is cell-based, human. The conditions noted are these: human, % viability.
Data set [5] deals with WI-38 cell line. In words: Cytotoxicity on normal cell line WI-38. The data set is classed as cell-based, human. The note with it: for IC50: read-out: Toxicity on WI38 IC50 ± SD; for % viability: human.

As to `NC(=O)Nc1sc(-c2ccc(F)cc2)cc1C(N)=O` [TPCA-1, reference compound], the “%inh” value in data set [1] (conc 0.01 (log -2)) worked out at 32.5%; in data set [1] (conc 0.1 (log -1)), 53.6%; in data set [1] (conc 1 (log 0)) it was 71.3%; in data set [1] (conc 10 (log 1)) it was 88.6%; in data set [1] (conc 100 (log 2)), 95.2%.
Consider `COc1cccc2c1C(=O)c1c(O)c3c(c(O)c1C2=O)C[C@@](O)(C(=O)CO)C[C@@H]3O[C@H]1C[C@H](N)[C@H](O)[C@H](C)O1` [Doxorubicin, reference compound], for which the IC50 in data set [2] (Homo sapiens, MCF7, MCF7 cell line, MTT) came to 0.053 ± 0.002 µM; in data set [3], 0.218 ± 0.005 µM; in data set [5] (Homo sapiens, WI-38, normal human fetal lung fibroblast WI-38), 11.4 µM; in data set [5] (normal human fetal lung fibroblast WI-38), 11.4 ± 0.37 µM. Moreover, the Toxicity % was 48.12% in data set [2] (MCF7, 0.0487 µMol); 52.667% in data set [2] (MCF7, 0.0975 µMol); 56.34% in data set [2] (MCF7, 0.195 µMol); 62.87% in data set [2] (MCF7, 0.391 µMol); 73.56% in data set [2] (MCF7, 0.781 µMol); 80.23% in data set [2] (MCF7, 1.562 µMol). Besides, the Toxicity % is given as 90.87% in data set [2] (MCF7, 3.125 µMol); 93.45% in data set [2] (MCF7, 6.25 µMol); 97.46% in data set [2] (MCF7, 12.5 µMol); 98.45% in data set [2] (MCF7, 25 µMol). Besides, the Viability % is on record as 51.88% in data set [2] (MCF7, 0.0487 µMol); 47.34% in data set [2] (MCF7, 0.0975 µMol); 43.66% in data set [2] (MCF7, 0.195 µMol); 37.13% in data set [2] (MCF7, 0.391 µMol); 26.44% in data set [2] (MCF7, 0.781 µMol); 19.77% in data set [2] (MCF7, 1.562 µMol). Moreover, the Viability % is 9.13% in data set [2] (MCF7, 3.125 µMol); 6.55% in data set [2] (MCF7, 6.25 µMol); 2.542% in data set [2] (MCF7, 12.5 µMol); 1.556% in data set [2] (MCF7, 25 µMol). The compound also gave a viability at 1.55 µM in data set [4] of 84.1%. Also, in data set [4], the viability at 6.25 µM was 64.5%. The viability at 12.5 µM in data set [4] worked out at 52.4%. The compound also yielded a viability at 25 µM in data set [4] of 31.1%. In addition, the “Selectivity index (SI)” value in data set [5] (IC50 in WI-38 / IC50 in A549) was 52 and 52.4. The “% viability” value in data set [5] (1.55 µM) is on record as 84.08%; in data set [5] (3.25 µM), 72.52%; in data set [5] (12.5 µM) it was 52.38%; in data set [5] (25 µM), 31.09%.
